# Assays:
# [1] = humans, 500 μg twice a day; cited from earlier work
# [2] = Dofetilide induced ECG changes in sham control and regional cardiac denervated rabbits; type: in vivo, rabbit; conditions: for Dofetilide induced events: PVC / Dofetilide induced events: TdP: 4 μg/kg/min iv infusion
# Method: Dofetilide is an antiarrhythmic drug used clinically and known to cause QTc prolongation and possible TdP. The role of cardiac denervation in dofetilide induced changes in QTc interval, premature ventricular contraction (PVC) and TdP was assessed in sham control and RCSD rabbits at 3 weeks after surgery. Rabbits were anesthetized with ketamine (40 mg/kg, im) and xylazine (9 mg/kg, im), and dofetilide (1 and 4 μg/kg/min, Haorui Pharma-Chem Inc. Edison, N.J.) was infused for 10 minutes via a catheter in the marginal ear vein. Electrocardiogram (ECG) in lead II configuration was recorded with Ponemah system (v4.3, Data Science International) before and during the drug infusion. Heart rate (HR) and QT interval were derived from ECG waveforms. The QT interval was corrected by Fridericia method (QTcf=QT/RR^1/3).
smiles,measurement,setting,value
CN(CCOc1ccc(NS(C)(=O)=O)cc1)CCc1ccc(NS(C)(=O)=O)cc1 [dofetilide],bioavailability,[1],> 90%
same,Dofetilide induced events: PVC,[2]; Denervated rabbits (n = 8),5 (63%)
same,Dofetilide induced events: TdP,[2]; Denervated rabbits (n = 8),2 (25%)
same,Dofetilide induced events: PVC,[2]; Sham rabbits (n = 6),3 (50%)
same,Dofetilide induced events: TdP,[2]; Sham rabbits (n = 6),1 (17%)
same,ECG changes on intravenous administration,"[2]; sham control and RCSD rabbits, 1 and 4 μg/kg/min for 10 minutes",induced bradycardia and QT prolongation
